Reference: ChEMBL document CHEMBL1201862, “PubChem BioAssay data set” (2004)
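96-well plates; 48 h exposure; 5 concentrations. Endpoints by linear interpolation between flanking doses. Not reached: highest tested concentration assigned. GI50 marks 50% less growth.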 The source made the active and inactive calls. No stated cut-off is given here; in the data, active = GI50 up to about 1.1 µM and inactive = higher.

Tests used:
Experiment in all cases: inhibition of tumour cell growth, NCI panel, 48 h
786-0 = system: 786-0
A549 = system: A549
CCRF-CEM = system: CCRF-CEM
COLO 205 = system: COLO 205
DU-145 = system: DU-145
EKVX = system: EKVX
HCT-116 = system: HCT-116
HOP-62 = system: HOP-62
Hs-578T = system: Hs-578T
KM12 = system: KM12
MDA-MB-435 = system: MDA-MB-435
NCI-H226 = system: NCI-H226
NCI/ADR-RES = system: NCI/ADR-RES
PC-3 = system: PC-3
RPMI-8226 = system: RPMI-8226
SK-MEL-2 = system: SK-MEL-2
SNB-19 = system: SNB-19
UACC-257 = system: UACC-257
A498 = system: A498
HCC 2998 = system: HCC 2998

Measured: GI50

c1ccc(/N=C(\N2CCCC2)N(CCN2CCCC2)c2ccccc2)cc1
inactive: 786-0 43.2 µM | A549 56.6 µM | CCRF-CEM 5.93 µM | COLO 205 7.33 µM | DU-145 > 10 µM | EKVX 73.3 µM | HCT-116 1.83 µM | HOP-62 9.79 µM | Hs-578T 18.9 µM | KM12 11 µM | MDA-MB-435 7.67 µM | NCI-H226 23.7 µM | NCI/ADR-RES 37 µM | PC-3 5.5 µM | RPMI-8226 47.8 µM | SK-MEL-2 64.9 µM | SNB-19 > 100 µM | UACC-257 21 µM

COC(=O)[C@H]1NC(=O)CCSSC1(C)C
inactive: 786-0 > 100 µM | A498 > 100 µM | A549 > 100 µM | CCRF-CEM > 100 µM | COLO 205 > 100 µM | DU-145 > 100 µM | EKVX > 100 µM | HCT-116 > 100 µM | HOP-62 > 100 µM | Hs-578T > 100 µM | KM12 > 100 µM | MDA-MB-435 > 100 µM | NCI-H226 > 100 µM | NCI/ADR-RES > 100 µM | PC-3 > 100 µM | RPMI-8226 > 100 µM | SK-MEL-2 > 100 µM | SNB-19 > 100 µM | UACC-257 > 100 µM

CCOC(=O)C12C(=O)CCN1CCc1ccccc1C2C (stereo unspecified)
inactive: 786-0 > 100 µM | A498 > 100 µM | A549 > 100 µM | COLO 205 > 100 µM | DU-145 > 100 µM | EKVX > 100 µM | HCT-116 > 100 µM | HOP-62 > 100 µM | Hs-578T > 100 µM | KM12 > 100 µM | MDA-MB-435 > 100 µM | NCI-H226 > 100 µM | NCI/ADR-RES > 100 µM | PC-3 > 100 µM | RPMI-8226 > 100 µM | SK-MEL-2 > 100 µM | SNB-19 > 100 µM | UACC-257 > 100 µM

O=C(Nc1ccccc1)c1cc2ccccc2c(/N=N/c2ccc([N+](=O)[O-])cc2)c1O
inactive: 786-0 86.3 µM | A549 > 100 µM | CCRF-CEM 4.85 µM | COLO 205 > 100 µM | DU-145 > 100 µM | EKVX > 100 µM | HCT-116 > 100 µM | HOP-62 30.6 µM | Hs-578T 55.1 µM | KM12 > 100 µM | MDA-MB-435 > 100 µM | NCI-H226 > 100 µM | NCI/ADR-RES > 100 µM | PC-3 > 100 µM | RPMI-8226 25.5 µM | SK-MEL-2 32.8 µM | SNB-19 59.6 µM | UACC-257 > 100 µM

Clc1ccc(CN2CCCN(Cc3ccc(Cl)cc3)C2c2cc3ccccc3c3ccccc23)cc1
inactive: 786-0 75 µM | A498 19 µM | A549 > 100 µM | COLO 205 19.7 µM | DU-145 44.2 µM | EKVX 39.1 µM | HCT-116 44.8 µM | HOP-62 > 100 µM | Hs-578T 24.4 µM | KM12 60.3 µM | MDA-MB-435 30.2 µM | NCI-H226 > 100 µM | NCI/ADR-RES 65.8 µM | PC-3 24.3 µM | RPMI-8226 45.1 µM | SK-MEL-2 25.5 µM | SNB-19 > 100 µM | UACC-257 22.8 µM

Cc1nc(NC(C)(CO)CO)nc(N/N=C/c2ccc(Cl)cc2)c1C(=O)Nc1ccc(Cl)cc1
inactive: 786-0 > 100 µM | A549 77.3 µM | CCRF-CEM 42.9 µM | COLO 205 > 100 µM | DU-145 > 100 µM | EKVX > 100 µM | HCC 2998 > 100 µM | HCT-116 80.2 µM | HOP-62 > 100 µM | Hs-578T > 100 µM | KM12 86.7 µM | MDA-MB-435 > 100 µM | NCI-H226 > 100 µM | NCI/ADR-RES > 100 µM | PC-3 > 100 µM | RPMI-8226 > 100 µM | SK-MEL-2 > 100 µM | SNB-19 > 100 µM | UACC-257 > 100 µM

Cc1c2n(c3ccccc13)S(=O)(=O)c1ccccc1-2
inactive: 786-0 10.1 µM | A498 11 µM | A549 23.4 µM | CCRF-CEM > 100 µM | COLO 205 > 100 µM | DU-145 47.2 µM | EKVX 6.37 µM | HCC 2998 > 100 µM | HCT-116 21.2 µM | Hs-578T 18.7 µM | KM12 > 100 µM | MDA-MB-435 > 100 µM | NCI-H226 77.3 µM | NCI/ADR-RES 28.1 µM | PC-3 22.5 µM | RPMI-8226 > 100 µM | SNB-19 19.8 µM | UACC-257 > 100 µM

Cc1nc2sc3ccccc3n2c(=O)c1/N=N/c1ccc(Br)cc1
inactive: 786-0 > 100 µM | A498 43.3 µM | A549 > 100 µM | CCRF-CEM 77.8 µM | COLO 205 > 100 µM | DU-145 > 100 µM | EKVX 57.1 µM | HCT-116 > 100 µM | HOP-62 > 100 µM | Hs-578T 67.5 µM | KM12 > 100 µM | MDA-MB-435 > 100 µM | NCI-H226 44.8 µM | NCI/ADR-RES > 100 µM | PC-3 51.5 µM | RPMI-8226 71.3 µM | SK-MEL-2 81.5 µM | SNB-19 > 100 µM | UACC-257 > 100 µM

CC1=NN(C(=O)CSc2nnc(SCC(=O)N3N=C(C)CC3(O)c3ccccc3)s2)C(O)(c2ccccc2)C1 (stereo unspecified)
inactive: 786-0 43.3 µM | A498 > 100 µM | A549 48.4 µM | CCRF-CEM 18.7 µM | COLO 205 32.1 µM | DU-145 35.5 µM | EKVX 27 µM | HCC 2998 > 100 µM | HCT-116 30.9 µM | HOP-62 51.3 µM | Hs-578T 36.3 µM | KM12 26.7 µM | MDA-MB-435 51.3 µM | NCI/ADR-RES 27.9 µM | PC-3 34.5 µM | RPMI-8226 15.5 µM | SK-MEL-2 29.2 µM | SNB-19 60.4 µM | UACC-257 43.8 µM

Nc1ncnc2c1nc(O)n2-c1ccccc1
inactive: 786-0 > 100 µM | A498 > 100 µM | A549 > 100 µM | COLO 205 > 100 µM | EKVX 93.8 µM | HCC 2998 > 100 µM | HCT-116 > 100 µM | HOP-62 > 100 µM | Hs-578T > 100 µM | MDA-MB-435 > 100 µM | NCI/ADR-RES > 100 µM | PC-3 > 100 µM | RPMI-8226 > 100 µM | SK-MEL-2 > 100 µM | SNB-19 > 100 µM | UACC-257 > 100 µM

O=C(/C=C\c1ccccc1)Oc1ccc(/C=C2\CCC/C(=C\c3ccc(OC(=O)/C=C\c4ccccc4)cc3)C2=O)cc1
inactive: 786-0 > 100 µM | A549 > 100 µM | CCRF-CEM > 100 µM | COLO 205 > 100 µM | DU-145 > 100 µM | EKVX > 100 µM | HCC 2998 > 100 µM | HCT-116 > 100 µM | HOP-62 > 100 µM | Hs-578T > 100 µM | KM12 > 100 µM | MDA-MB-435 > 100 µM | NCI/ADR-RES > 100 µM | PC-3 > 100 µM | RPMI-8226 > 100 µM | SK-MEL-2 > 100 µM | SNB-19 > 100 µM | UACC-257 > 100 µM

CC(C)c1c(O[Si](C(C)C)(C(C)C)C(C)C)cc2c(c1O)CC[C@H]1C(C)(C)CCC[C@]21C
inactive: 786-0 > 100 µM | A498 > 100 µM | A549 > 100 µM | CCRF-CEM 49.5 µM | COLO 205 > 100 µM | DU-145 > 100 µM | EKVX > 100 µM | HCT-116 > 100 µM | HOP-62 > 100 µM | Hs-578T > 100 µM | KM12 > 100 µM | MDA-MB-435 > 100 µM | NCI-H226 > 100 µM | NCI/ADR-RES > 100 µM | PC-3 > 100 µM | RPMI-8226 45.7 µM | SK-MEL-2 > 100 µM | SNB-19 > 100 µM | UACC-257 > 100 µM

COC[C@@H](/N=C/c1ccc([N+](=O)[O-])cc1)C(C)C
inactive: 786-0 > 100 µM | A549 > 100 µM | CCRF-CEM 75.9 µM | DU-145 > 100 µM | EKVX > 100 µM | HCT-116 26 µM | Hs-578T > 100 µM | KM12 > 100 µM | MDA-MB-435 > 100 µM | NCI/ADR-RES > 100 µM | PC-3 > 100 µM | RPMI-8226 25.2 µM | SK-MEL-2 > 100 µM | SNB-19 > 100 µM | UACC-257 > 100 µM

CCOC(=O)C(NC(=O)CC)(Nc1ccc(S(=O)(=O)Nc2ncccn2)cc1)C(F)(F)F (stereo unspecified)
inactive: 786-0 > 100 µM | A549 > 100 µM | CCRF-CEM > 100 µM | COLO 205 > 100 µM | DU-145 > 100 µM | EKVX > 100 µM | HCC 2998 > 100 µM | HCT-116 > 100 µM | HOP-62 > 100 µM | Hs-578T > 100 µM | KM12 > 100 µM | MDA-MB-435 > 100 µM | NCI-H226 > 100 µM | NCI/ADR-RES > 100 µM | PC-3 > 100 µM | RPMI-8226 > 100 µM | SNB-19 > 100 µM | UACC-257 > 100 µM

COc1ccc(OC)c(N(CN2C(=O)CCC2C(=O)O)C(C)=O)c1 (stereo unspecified)
inactive: 786-0 > 100 µM | A498 > 100 µM | A549 > 100 µM | CCRF-CEM > 100 µM | COLO 205 > 100 µM | DU-145 > 100 µM | EKVX > 100 µM | HCT-116 > 100 µM | HOP-62 > 100 µM | Hs-578T > 100 µM | KM12 > 100 µM | MDA-MB-435 > 100 µM | NCI-H226 > 100 µM | NCI/ADR-RES > 100 µM | PC-3 > 100 µM | RPMI-8226 > 100 µM | SK-MEL-2 > 100 µM | SNB-19 > 100 µM | UACC-257 > 100 µM
